Reference: publication PMC3940197, “Identification of the first small-molecule ligand of the neuronal receptor sortilin and structure determination of the receptor–ligand complex” (Acta Crystallographica Section D: Biological Crystallography, 2014)

Tests used:
sortilin [1] = target: T1, sortilin (Homo sapiens, UniProt Q99523); assay: Isothermal titration calorimetry (ITC) of binding to sortilin; conditions: 25°C, PBS pH 7.4, 4% DMSO, read-out: dissociation constant (Kd)
T1 construct: The extracellular Vps10p domain of sortilin was overexpressed in HEK293F cells and purified from the medium; made in house; host or cells: HEK293F
T1 sequence (Q99523 78-756): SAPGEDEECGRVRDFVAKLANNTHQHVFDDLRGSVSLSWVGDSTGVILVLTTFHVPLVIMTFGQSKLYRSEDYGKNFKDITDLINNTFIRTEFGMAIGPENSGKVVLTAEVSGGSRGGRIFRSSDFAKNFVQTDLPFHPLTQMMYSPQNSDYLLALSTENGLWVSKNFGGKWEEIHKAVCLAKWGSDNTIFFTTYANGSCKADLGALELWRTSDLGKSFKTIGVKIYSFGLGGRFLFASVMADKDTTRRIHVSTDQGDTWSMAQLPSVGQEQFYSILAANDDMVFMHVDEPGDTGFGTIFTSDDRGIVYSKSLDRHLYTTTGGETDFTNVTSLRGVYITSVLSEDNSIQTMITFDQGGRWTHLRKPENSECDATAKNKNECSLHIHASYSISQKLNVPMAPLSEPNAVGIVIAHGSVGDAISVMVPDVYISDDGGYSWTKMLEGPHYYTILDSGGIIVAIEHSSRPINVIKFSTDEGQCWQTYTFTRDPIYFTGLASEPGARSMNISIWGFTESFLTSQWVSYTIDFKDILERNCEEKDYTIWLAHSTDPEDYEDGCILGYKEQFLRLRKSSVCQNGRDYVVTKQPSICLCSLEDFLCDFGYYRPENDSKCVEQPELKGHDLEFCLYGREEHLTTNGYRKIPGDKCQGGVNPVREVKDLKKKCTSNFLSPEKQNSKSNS
Method: The open reading frame of human sortilin including the endogenous signal peptide to residue 723 was amplified by PCR and cloned into the pCEP-pu vector with XbaI and XhoI. The primers were designed to include a C-terminal factor Xa site followed by a hexahistidine tag. HEK293F cells were transfected with 900 µg plasmid, applying 900 µl FreeStyle MAX reagent (Invitrogen) according to the manufacturer’s instructions, and were grown in 900 ml FreeStyle 293 medium (Invitrogen) in a 3 l Erlenmeyer flask for 7 d. The medium was harvested by centrifugation at 3700g for 15 min, filtered through a 0.40 µm filter and the pH was adjusted by supplementation with Tris–HCl pH 8.0 to a final concentration of 50 mM. A 5 ml Ni–NTA column (GE Healthcare) was equilibrated in buffer A (50 mM Tris–HCl pH 8.0, 150 mM NaCl) and the medium was recirculated over the column overnight. […]
The binding of AF40431 to sortilin was measured by isothermal titration calorimetry (ITC). […] Heat evolving from dilution was measured by injecting the ligand into PBS supplemented with 4% DMSO. […] Finally, the binding stoichiometry (n), equilibrium dissociation constant (K d), molar enthalpy and entropy changes for the binding processes were determined by analyzing the titration data using Origin software (OriginLab, Northampton, Massachusetts, USA).

sortilin [2] = target: T2, sortilin (Homo sapiens, UniProt Q99523); assay: 3H-neurotensin-binding sortilin scintillation proximity assay (SPA); conditions: for IC50: 150 nM sortilin, 5 nM 3H-neurotensin, averages of at least four determinations, read-out: IC50 (displacement of 3H-neurotensin binding to sortilin); for activity in SPA assay (in words): structure-activity relationship relative to hit 1a
T2 construct: The extracellular Vps10p domain of sortilin was overexpressed in HEK293F cells and purified from the medium; made in house; host or cells: HEK293F
T2 sequence (Q99523 78-755 limits assumed): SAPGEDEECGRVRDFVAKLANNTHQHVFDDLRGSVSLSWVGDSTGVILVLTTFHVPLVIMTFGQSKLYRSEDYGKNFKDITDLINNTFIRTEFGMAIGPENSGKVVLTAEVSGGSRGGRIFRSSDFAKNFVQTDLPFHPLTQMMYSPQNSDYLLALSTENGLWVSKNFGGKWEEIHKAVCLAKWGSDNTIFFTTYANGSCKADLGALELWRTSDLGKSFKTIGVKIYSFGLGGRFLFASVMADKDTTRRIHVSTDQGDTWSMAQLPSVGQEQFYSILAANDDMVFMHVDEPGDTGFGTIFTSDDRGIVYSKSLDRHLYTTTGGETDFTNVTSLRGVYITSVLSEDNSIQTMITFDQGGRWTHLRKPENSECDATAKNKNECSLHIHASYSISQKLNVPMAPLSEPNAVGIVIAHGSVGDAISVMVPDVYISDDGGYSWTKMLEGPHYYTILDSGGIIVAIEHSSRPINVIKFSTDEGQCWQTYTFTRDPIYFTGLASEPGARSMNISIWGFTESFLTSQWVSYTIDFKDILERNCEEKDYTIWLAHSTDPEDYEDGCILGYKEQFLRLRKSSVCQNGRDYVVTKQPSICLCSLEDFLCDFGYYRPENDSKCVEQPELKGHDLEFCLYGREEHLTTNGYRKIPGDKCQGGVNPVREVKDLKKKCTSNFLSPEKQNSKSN
Method: The open reading frame of human sortilin including the endogenous signal peptide to residue 723 was amplified by PCR and cloned into the pCEP-pu vector with XbaI and XhoI. The primers were designed to include a C-terminal factor Xa site followed by a hexahistidine tag. HEK293F cells were transfected with 900 µg plasmid, applying 900 µl FreeStyle MAX reagent (Invitrogen) according to the manufacturer’s instructions, and were grown in 900 ml FreeStyle 293 medium (Invitrogen) in a 3 l Erlenmeyer flask for 7 d. The medium was harvested by centrifugation at 3700g for 15 min, filtered through a 0.40 µm filter and the pH was adjusted by supplementation with Tris–HCl pH 8.0 to a final concentration of 50 mM. A 5 ml Ni–NTA column (GE Healthcare) was equilibrated in buffer A (50 mM Tris–HCl pH 8.0, 150 mM NaCl) and the medium was recirculated over the column overnight. The column was washed with five column volumes of wash buffer (50 mM Tris–HCl pH 8.0, 150 mM NaCl, 10 mM imidazole) and sortilin was eluted with a ten-column-volume imidazole gradient (10–250 mM imidazole). Fractions containing sortilin were pooled and concentrated by […] (Vivaspin 20, 10 kDa cutoff, Sartorius). The sortilin was applied onto a Superdex 200 10/300 GL column (GE Healthcare) equilibrated in buffer A. Fractions containing sortilin were pooled, concentrated to a final concentration of 5 mg ml^−1, flash-frozen in liquid nitrogen and stored at −80°C.
The compound affinity was determined by measuring the displacement of ^3H-neurotensin binding to sortilin using a scintillation proximity assay (SPA). Experiments were performed in assay buffer (50 mM HEPES pH 7.4, 100 mM NaCl, 2.0 mM CaCl2, 0.1% BSA, 0.1% Tween-20) with a total volume of 40 µl. The compound was pre-incubated for 30 min at room temperature with 150 nM sortilin before 5 nM ^3H-neurotensin and Ni-chelate imaging beads (Perkin Elmer) were added. After 6 h, the plate was read on a ViewLux with 360 s exposure time. Unlabelled neurotensin and a DMSO blank were used as positive and negative controls, respectively. Dose-response evaluation of compounds was performed with ten concentrations of 1a–1h and AF40431 (covering concentrations between 2.5 nM and 50 µM). The half-maximal inhibitory concentration (IC50) values were calculated by nonlinear regression using the sigmoid concentration response (variable slope) in XLfit 4 (IDBS, UK). All values reported are the averages of at least four determinations.

NTSR1 = NTSR1 (Homo sapiens, UniProt P30989); assay: Competition of NTS binding to NTSR1; conditions: data not shown
Sequence of NTSR1 (P30989 whole entry, species assumed): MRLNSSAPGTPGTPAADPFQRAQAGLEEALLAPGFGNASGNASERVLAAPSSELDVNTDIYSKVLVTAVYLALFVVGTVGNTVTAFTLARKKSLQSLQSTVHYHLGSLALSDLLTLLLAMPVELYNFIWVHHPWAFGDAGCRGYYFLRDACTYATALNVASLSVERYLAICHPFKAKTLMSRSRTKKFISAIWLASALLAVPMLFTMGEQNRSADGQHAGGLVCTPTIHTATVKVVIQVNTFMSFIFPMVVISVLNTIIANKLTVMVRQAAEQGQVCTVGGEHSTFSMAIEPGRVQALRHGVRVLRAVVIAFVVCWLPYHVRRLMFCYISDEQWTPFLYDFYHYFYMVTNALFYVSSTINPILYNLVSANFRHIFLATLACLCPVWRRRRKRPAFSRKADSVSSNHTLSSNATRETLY

proNGF (Homo sapiens) = proNGF (Homo sapiens) (UniProt P01138); conditions: cited from earlier work
Sequence of proNGF (Homo sapiens) (P01138 122-241): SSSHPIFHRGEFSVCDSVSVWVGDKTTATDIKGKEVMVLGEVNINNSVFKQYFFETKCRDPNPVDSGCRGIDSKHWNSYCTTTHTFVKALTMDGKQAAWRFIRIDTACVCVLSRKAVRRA

Row | Compound | Kd (sortilin [1]) [µM] | IC50 (sortilin [2]) [µM] | IC50 (NTSR1) [µM] | activity in SPA assay (in words) (sortilin [2]) | Kd (proNGF (Homo sapiens)) [µM]
1 | Cc1cc(=O)oc2c(CN[C@@H](CC(C)C)C(=O)O)c(O)ccc12 [AF40431] | 0.7 | 4.4 ± 0.7 | > 50 | – | –
2 | CCC(C)C(NCc1c(O)ccc2c(C)cc(=O)oc12)C(=O)O (stereo not shown) [Compound 1b] | – | 6.1 ± 2.7 | – | activity was retained | –
3 | Cc1cc(=O)oc2c(CNC(C(=O)O)C3CCCCC3)c(O)ccc12 (stereo not shown) [Compound 1d] | – | 1.7 ± 0.3 | – | activity was retained | –
4 | Cc1cc(=O)oc2c(CNC(C)C(=O)O)c(O)ccc12 (stereo not shown) [Compound 1f] | – | > 50 | – | activity was ablated | –
5 | Cc1cc(=O)oc2c(CN[C@H](CC(C)C)C(=O)O)c(O)ccc12 [Compound 1h] | – | > 50 | – | inactive | –
6 | Sortilin (from UniProt Q99523) | – | – | – | – | 0.00016

The next lines start with results.

Row | Kd (sortilin [1]) [µM] | IC50 (sortilin [2]) [µM] | IC50 (NTSR1) [µM] | activity in SPA assay (in words) (sortilin [2]) | Compound | Kd (proNGF (Homo sapiens)) [µM]
7 | – | 1.8 | – | – | Cc1cc(=O)oc2c(CNC(CC(C)C)C(=O)O)c(O)ccc12 (stereo not shown) [Compound 1a] | –
8 | – | 3.1 ± 1.1 | – | activity was retained | Cc1cc(=O)oc2c(CNC(CC(C)(C)C)C(=O)O)c(O)ccc12 (stereo not shown) [Compound 1c] | –
9 | – | > 50 | – | activity was ablated | Cc1cc(=O)oc2c(CNC(C(=O)O)C(C)C)c(O)ccc12 (stereo not shown) [Compound 1e] | –
10 | – | > 50 | – | activity was ablated | Cc1cc(=O)oc2c(CNC(Cc3ccccc3)C(=O)O)c(O)ccc12 (stereo not shown) [Compound 1g] | –
